The test system of assay [1] is mice. The assay can be described thus: Hot Plate Assay in mice. Type of assay: in vivo. On the procedure:
(§1) Antinociceptive activity of compounds of the invention was determined in vivo in a PBQ writhing model and in the hot plate test in rodents. Inhibition of PBQ (phenyl-.rho.-benzoquinone) induced writhing in mice is an assessment of both central and peripherally-mediated analgesia. For experimental protocol see Sigmund et al., Proc. Soc. Ex. Biol. Med., 95, p. 729 (1957) which is incorporated herein by reference. Centrally-mediated analgesia was determined by the inhibition of a hot plate response in mice. For experimental protocol see G. Woolfe and A. Macdonald, J. Pharmacol. Exp. Ther., 80, p. 300 ([…]) which is incorporated herein by reference. Assays measuring opioid receptor binding affinities for μ, δ and κ receptors as well as GPI and MVD assays were determined through experimental protocol set out in Schiller et al., Biophys. Res. Commun., 85, p. 1322 (1975); Rothman et al, Peptides, Vol 11, pp 311-331, 1990; Kaffa et al, Peptides 15(3), 401-404, 1994; Fowler et al, Neurochem. Int 24(5), 401-426, 1994; and Leslie F., Pharmacological Review 39(3), 197-249, 1987 incorporated herein by reference.
For this test, CD #1 male mice (Charles River) weighing between 20-25 grams were used. The mice were weighed, identified, and randomized into groups of 10.
The mice were usually treated by subcutaneous injection of the compound (or the standard or vehicle) or by oral gavage.
The mice were evaluated individually for a latency reaction time on the hot plate. The temperature of the hot plate (Sorel, model DS37) was set at 55° C. […] The reaction time was recorded when one of these signs was noted. The cut off for latency response was 15 seconds so as to prevent damage to the paw tissue. […] The time intervals are typically 30, 60 or 120 minutes (or other).
For each time reading, the average reaction time of the control group was multiplied by 1.5. The reaction time of each treated animal was compared to the "control average×1.5".

Assay [2] deals with mice. The assay is described as follows: Phenylquinone (PBQ) Writhing Assay. Type of assay: in vivo. Here is the method: as §1
Phenylquinone Writhing Assay
The test was performed using CD #1 male mice (Charles River) weighing between 19 and 25 g. Animals were maintained in constant conditions of light, temperature and humidity. The animals were acclimatized for three days prior to experimentation. […]

As for `CC12CCCCSC(Cc3ccc(O)cc31)C2N` (centres unmarked) [compound #9, 5,6,7,8,9,11,12-heptahydro-3-hydroxy-5-methyl-10-thia-5,11 methanobenzocyclodecen-13-amine], in the assay with mice [1] (2.5 mg/kg, subcutaneous, after 15 minutes (FIG. 1)), the latency response time entry is reported as “almost maximum”. Besides, the reaction time entry with mice [1] (5 mg/kg, subcutaneous (FIG. 1), control approximately 7 seconds) is recorded as “about 19 seconds”. Further, the “latency response to radiant heat, dose dependence” value with mice [1] (subcutaneous (FIG. 1)) is reported as “dose dependent latency response”. The “inhibition of the writhing response (PBQ)” value in the assay on mice [2] (oral administration one hour prior to PBQ (FIG. 2)) and in the assay on mice [2] (s.c. administration twenty minutes prior to PBQ (FIG. 3)) was “dose-dependent inhibition” each time.

The record behind these values is patent publication US6054474A, “Heterocyclic compounds for the treatment of pain and use thereof” (Biochem Pharma, Inc., priority 1995, dated 2000).
